Results as given in US5676937A, “Deodorant compositions comprising inhibitors of odor-producing axillary bacterial exoenzymes” (Colgate-Palmolive Company, priority 1995, dated 1997).
Read-outs that look alike come from different tables or passages of the source.

What was measured:
beta-glucuronidase [1] = target: T1, beta-glucuronidase (Escherichia coli, UniProt P05804); test: Quantitative fluorimetric assay of beta-G; assay type: biochemical, E. coli; details: FIG. 3; for level at which inhibition of beta-G is provided: in words; for effective inhibitor concentration range for beta-G: relative initial rate vs log inhibitor concentration, 37° C.
T1 construct: purchased Sigma Chemical Co
T1 sequence (P05804 whole entry): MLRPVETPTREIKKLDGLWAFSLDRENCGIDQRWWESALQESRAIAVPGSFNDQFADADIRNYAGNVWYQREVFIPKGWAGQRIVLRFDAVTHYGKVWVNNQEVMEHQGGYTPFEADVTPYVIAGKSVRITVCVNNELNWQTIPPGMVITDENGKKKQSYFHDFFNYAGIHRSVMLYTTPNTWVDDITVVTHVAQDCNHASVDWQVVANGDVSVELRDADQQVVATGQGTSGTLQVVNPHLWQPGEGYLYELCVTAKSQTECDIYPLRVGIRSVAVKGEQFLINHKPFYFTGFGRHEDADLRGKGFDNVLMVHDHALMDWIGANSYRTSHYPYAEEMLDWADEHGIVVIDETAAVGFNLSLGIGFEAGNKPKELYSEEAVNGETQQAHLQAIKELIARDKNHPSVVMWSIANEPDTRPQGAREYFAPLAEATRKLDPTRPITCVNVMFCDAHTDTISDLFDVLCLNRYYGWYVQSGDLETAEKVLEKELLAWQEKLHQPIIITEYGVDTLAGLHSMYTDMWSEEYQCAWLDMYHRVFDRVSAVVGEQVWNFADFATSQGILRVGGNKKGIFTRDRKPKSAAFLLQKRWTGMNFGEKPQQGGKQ
Protocol: In addition to the semiquantitative assays several inhibitors of each, beta-G and AS, were assayed by quantitative fluorimetry. […] Prior to the performance of quantitative assays it was necessary to determine absorption and emission maxima of the fluorescent product 4-MU, as well as a concentration range for which the fluorescence intensity of this species varies linearly with concentration. A solution of 4-MU, 2 μg.ml, was prepared in 0.1M Tris buffer, pH 7.0. The absorption spectrum was scanned, giving a maximum at 334 nm. The emission maximum, 444 nm, was obtained by scanning the emission spectrum while irradiating at 334 nm. All quantitative fluorescence studies employed these parameters.
The levels of 4-MU generated in beta-G and AS assays fell into range 1. The conversion factor was 1 fluorescence unit=0.09 μM 4-MU.
Samples were prepared as described above. All components, except the enzyme, were warmed to 37° C. before addition of the enzyme. During the assays, reaction mixtures were maintained at 37° C. Fluorescence intensities were measured as a function of time.
As in the semi-quantitative tests, the progress of the reactions was indicated by the development of fluorescent product 4-MU from the non-fluorescent substrates, 4-MUG and 4-MUS. The data was recorded as fluorescence emission intensity as a function of time. […] Similar plots were constructed for each inhibitor. At each concentration, the beginning slope indicates the initial reaction rate. These rates were then expressed as a fraction of the uninhibited reaction rate and plotted against the log of the inhibitor concentration.

beta-glucuronidase [2] = target: T1, beta-glucuronidase; test: Semiquantitative assay of beta-glucuronidase (4-MUG to fluorescent 4-MU); assay type: biochemical, E. coli; set-up: key: + indicates enzyme inhibition; - indicates no enzyme inhibition; details: test inhibitor at 0.1 mM to 100 mM, 37° C., Tris pH 7, fluorescence by UV lamp
Protocol: (§1) B-glucuronidase from E. coli and aryl sulfatase from Aerobacter aerogenes, 4-methyl umbelliferyl glucuronide, 4-methylumbelliferyl sulfate, 4-methylumbelliferone, and D-saccharic acid-.tangle-solidup.-lactone were purchased from Sigma Chemical Co. Sodium hexametaphosphate (SPORIX) was obtained from International Sourcing.
(§2) Semiquantitative assays of the exoenzymes beta-G and AS were prepared. The enzyme assays measure conversion at 37° C. of the non-fluorescent substrates 4-MUG (for beta-G) and 4-MUS (for AS) to fluorescent product, 4-MU. The assay mixtures contained:
(§3) For the semiquantitative studies, fluorescence was detected by long-wave UV lamp (Black-Light Eastern Corporation Model XX 15).
(§4) The effects of inhibitors on the enzymatic reactions were assessed by substituting aqueous Solutions of test inhibitor, at 0.1 mM to 100 mM, for the water. To rule out quenching of the fluorescence reaction by the inhibitors separate tests were performed comparing the fluorescence from 4-MU at the maximum concentration expected in the enzyme reaction mixtures with either inhibitor solution or water.
(§5) Various inhibiting compounds of mammalian beta-G's and AS's, as well as related materials, were tested in the assay. The classic inhibitor of beta-G is saccharic acid-.tangle-solidup.-lactone (glucarolactone). This material was tested as well as the simple sugars, mannose, fucose and galactosamine and the polysaccharide pullulan. One of the reported inhibitors of beta-G, EDTA, is a strong chelating agent. Also tested against the enzyme were o-phenanthroline, citrate, gluconate, nitrilotriacetate and hexametaphosophate.

aryl sulfatase [3] = target: T2, aryl sulfatase (Klebsiella aerogenes, UniProt P20713); assay type: biochemical; set-up: key: + indicates enzyme inhibition; - indicates no enzyme inhibition
T2 construct: purchased Sigma Chemical Co
T2 sequence (P20713 21-464): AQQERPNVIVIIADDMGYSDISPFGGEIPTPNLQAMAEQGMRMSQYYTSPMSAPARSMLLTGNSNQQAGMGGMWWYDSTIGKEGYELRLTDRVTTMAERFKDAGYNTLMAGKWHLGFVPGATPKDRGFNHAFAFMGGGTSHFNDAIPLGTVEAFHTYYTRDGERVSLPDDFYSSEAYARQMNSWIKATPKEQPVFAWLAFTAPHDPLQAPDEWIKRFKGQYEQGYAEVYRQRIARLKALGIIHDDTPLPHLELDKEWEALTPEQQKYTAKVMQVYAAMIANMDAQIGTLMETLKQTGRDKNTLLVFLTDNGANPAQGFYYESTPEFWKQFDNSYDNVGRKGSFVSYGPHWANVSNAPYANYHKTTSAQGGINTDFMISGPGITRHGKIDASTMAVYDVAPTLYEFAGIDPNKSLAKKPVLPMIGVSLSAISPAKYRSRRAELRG
Protocol: as §1, §2, §3, §4
as §5, with “One of the reported inhibitors of beta-G, EDTA, is a strong chelating agent.” left out

aryl sulfatase [4] = target: T2, aryl sulfatase; test: Quantitative fluorimetric assay of AS; assay type: biochemical; details: FIG. 4; relative initial rate vs log inhibitor concentration; 37° C.
Protocol: As in the semi-quantitative tests, the progress of the reactions was indicated by the development of fluorescent product 4-MU from the non-fluorescent substrates, 4-MUG and 4-MUS. The data was recorded as fluorescence emission intensity as a function of time. […] At each concentration, the beginning slope indicates the initial reaction rate. These rates were then expressed as a fraction of the uninhibited reaction rate and plotted against the log of the inhibitor concentration.

mixture of AS and betaG = test: Inhibition of odor from apocrine secretion treated with enzymes (panel odor evaluation); assay type: biochemical, E. coli; Aerobacter aerogenes; details: enzymes (AS + betaG) + apocrine sweat + inhibitor 40 mM; 37° C.; evaluated at 24 hr and 48 hr; panel of five
Protocol: (§6) Apocrine secretion fluid was collected from eleven subjects. The axillary area was shaved, washed with a 0.1% solution of Triton X-100, rinsed with water, blotted dry, then rinsed with hexane. An intradermal injection of 0.1 ml of 1:2000 adrenaline was performed to stimulate the apocrine glands. Micropipettes (10 μl) were placed directly against the skin to collect the droplets of apocrine secretion. Samples were frozen until ready for use. The samples were eluted from the capillary tubes with 0.1M Tris buffer, pH 7.0, when ready for use in the odor-generation studies. Lipophilic diphtheroid cultures isolated from human axillae were obtained.
(§7) Inhibiting compounds were then tested to determine their effect on odor production in apocrine secretion. Sterile, odorless apocrine secretion was eluted from capillaries into 1.5 ml of 0.1M Tris buffer, pH 7.0. In the first study, apocrine sweat was treated with beta-glucuronidase, (E. coli) and aryl sulfatase (Aerobacter aerogenes) at 0.01 mg/ml in Tris buffer, 0.1M, pH 7.0. The apocrine secretion was also treated with the lipophilic diphtheroid and with a mixed culture of axillary bacteria, each in sterile saline suspension.
(§8) In a second study, inhibitors of the two enzymes were included in the reaction mixtures--Zn++ as Zn-Glycinate, saccharic acid lactone and hexametaphosphate. The concentration of each inhibitor used in this study was 40 mM. […]

axillary odor = test: Human clinical study of axillary deodorancy; assay type: in vivo; details: for Mean Odor Score: four-judge average, ten-point scoring, Zn-GLY […], ACH 5.0%
Protocol: The negative control was water. Odor assessments were performed by four experienced professional evaluators from Hill Top Research, using a ten-point scoring system. Ninety subjects were recruited, and baseline scores were established after a twenty-four hour conditioning period. Sixty subjects with highest scores (all greater than 4) were retained for the study.
During the test the subjects were entered into a regimen of timed, supervised washes with conditioning soap bars, followed by supervised treatments with the test solutions and post-treatment odor evaluation. The evaluations were conducted at 5-hr and 24-hr intervals following treatments 2, 3 and 4 and all aspects were randomized to eliminate any biases.
Scores of the four judges were averaged for each person, for each evaluation. The axilla-to-axilla difference for each person was taken as the index of the deodorancy of the test material versus the water control.
The positive control was 5.0% aluminum chlorhydrate. […] The negative control was distilled deionized water.
The mean odor scores represent the four-judge average odor scores, post-treatment. The control values are the average baseline odor scores for the various cells.

lipophilic diphtheroid [5] = test: Inhibition of odor from apocrine secretion treated with lipophilic diphtheroids (panel odor evaluation); assay type: cell-based; details: lipophilic diphtheroids + apocrine sweat + inhibitor 40 mM; 37° C.; evaluated at 24 hr and 48 hr; panel of five
Protocol: as §6, §7, §8

S. aureus = test: Minimum inhibitory concentration, S. aureus; assay type: cell-based; details: ">" = growth at the highest concentration
Protocol: (§9) Minimum Inhibitory Concentration (MIC) values of several zinc complexes were measured for three organisms that occur naturally in the axilla: S. epidermidis, S. aureus and a lipophilic diphtheroid.
(§10) Simple salts of zinc are known to be bacteriostatic. An outcome of the experiments was producing a method to reduce axillary odor without destroying the natural flora of the axilla. Therefore MIC values of several zinc complexes and the antiseptic Irgasan DP 300 (positive control) were measured against several organisms that occur naturally in the underarm, including S epidermidis, S. aureus, and a lipophilic diphtheroid. The ">" signs indicate that bacterial growth occurred at the highest concentration of zinc compound. None of the zinc compounds were conspicuously inhibitory, having effective levels ranging from 0.1 to 1%.

lipophilic diphtheroid [6] = test: Minimum inhibitory concentration, lipophilic diphtheroid; assay type: cell-based; details: ">" = growth at the highest concentration
Protocol: as §9, §10

S. epidermidis = test: Minimum inhibitory concentration, S. epidermidis; assay type: cell-based; details: ">" = growth at the highest concentration
Protocol: as §9, §10

[7] = test inhibitor at 0.1 mM to 100 mM, 4-MUS, 37° C., Tris pH 7, fluorescence by UV lamp

O=C(O)CN(CCN(CC(=O)O)CC(=O)O)CC(=O)O [EDTA, reference compound]
level at which inhibition of beta-G is provided (beta-glucuronidase [1]): millimolar levels
inhibition of BETA-G (beta-glucuronidase [2]): +
inhibition of AS (aryl sulfatase [3]; [7]): -

c1cnc2c(c1)ccc1cccnc12 [O-phenanthroline, o-phenanthroline]
level at which inhibition of beta-G is provided (beta-glucuronidase [1]): millimolar levels
inhibition of BETA-G (beta-glucuronidase [2]): +

N[C@H]1C(O)O[C@H](CO)[C@H](O)[C@@H]1O (stereo partly shown) [Galactosamine, galactosamine]
inhibition of BETA-G (beta-glucuronidase [2]): -

fucose
inhibition of BETA-G (beta-glucuronidase [2]): -

O=P1([O-])OP(=O)([O-])OP(=O)([O-])OP(=O)([O-])OP(=O)([O-])OP(=O)([O-])O1.[Na+].[Na+].[Na+].[Na+].[Na+].[Na+] [hexametaphosphate, Sodium hexametaphosphate]
effective inhibitor concentration range for AS (aryl sulfatase [4]): 10-100 82 M
odor (mixture of AS and betaG): Faint/moderate musky-sweaty
inhibition of BETA-G (beta-glucuronidase [2]): +
inhibition of AS (aryl sulfatase [3]; [7]): +

aluminum chlorhydrate [ACH]
% Difference (decrease in odor vs H2O axilla) (axillary odor; application #2, 5 hr): 34.0%
Mean Odor Score (axillary odor; application #2, 5 hr): 3.13
% Difference (decrease in odor vs H2O axilla) (axillary odor; application #2, 24 hr): 27.8%
Mean Odor Score (axillary odor; application #2, 24 hr): 3.91
% Difference (decrease in odor vs H2O axilla) (axillary odor; application #3, 5 hr): 28.8%
Mean Odor Score (axillary odor; application #3, 5 hr): 2.95
% Difference (decrease in odor vs H2O axilla) (axillary odor; application #3, 24 hr): 26.1%
Mean Odor Score (axillary odor; application #3, 24 hr): 3.88
% Difference (decrease in odor vs H2O axilla) (axillary odor; application #4, 5 hr): 34.9%
Mean Odor Score (axillary odor; application #4, 5 hr): 2.90
% Difference (decrease in odor vs H2O axilla) (axillary odor; application #4, 24 hr): 29.5%
Mean Odor Score (axillary odor; application #4, 24 hr): 3.64

O=C(O)[C@@H](O)[C@H]1OC(=O)[C@H](O)[C@H]1O [D-glucaro-.tangle-solidup.-lactone, D-saccharic acid-.tangle-solidup.-lactone, reference compound]
odor (lipophilic diphtheroid [5]): Moderate sweaty
odor (mixture of AS and betaG): No odor to faint musky-sweaty
effective inhibitor concentration range for beta-G (beta-glucuronidase [1]): 1-10 μm
inhibition of BETA-G (beta-glucuronidase [2]): +

[Zn+2] [Zn++]
effective inhibitor concentration range for AS (aryl sulfatase [4]): 10-100 82 M
effective inhibitor concentration range for beta-G (beta-glucuronidase [1]): 10 to 100 µM
inhibition of BETA-G (beta-glucuronidase [2]): +
inhibition of AS (aryl sulfatase [3]; [7]): +

Oc1cc(Cl)ccc1Oc1ccc(Cl)cc1Cl [Irgasan, reference compound]
MIC, STAPHYLOCOCCUS AUREUS (S. aureus): < 0.5 ppm
MIC, LIPOPHILIC DIPHTHEROID (lipophilic diphtheroid [6]): 16 ppm
MIC, STAPHYLOCOCCUS EPIDERMIS (S. epidermidis): < 0.5 ppm

[Cu+2] [Cu++]
effective inhibitor concentration range for AS (aryl sulfatase [4]): 0.1 to 10 µM
effective inhibitor concentration range for beta-G (beta-glucuronidase [1]): 10 to 100 µM
inhibition of BETA-G (beta-glucuronidase [2]): +
inhibition of AS (aryl sulfatase [3]; [7]): +

mannose
inhibition of BETA-G (beta-glucuronidase [2]): -

O=S(=O)([O-])[O-].[Na+].[Na+] [Sodium sulfate]
inhibition of BETA-G (beta-glucuronidase [2]): +

pullulan
inhibition of BETA-G (beta-glucuronidase [2]): -

O=C(O)CC(O)(CC(=O)O)C(=O)O [Citrate]
inhibition of BETA-G (beta-glucuronidase [2]): -

[Cl-].[Cl-].[Zn+2] [ZnCl2]
MIC, STAPHYLOCOCCUS AUREUS (S. aureus): > 1000 ppm
MIC, LIPOPHILIC DIPHTHEROID (lipophilic diphtheroid [6]): > 1000 ppm
MIC, STAPHYLOCOCCUS EPIDERMIS (S. epidermidis): > 1000 ppm

O=P(O)(O)O [Orthophosphate]
inhibition of AS (aryl sulfatase [3]; pH 7): +
